Results from patent US6538037B2, “Methods for preparation and use of 1α,24(S)-dihydroxyvitamin D2” (Bone Care International, Inc., priority 1991, dated 2003).
Like-named read-outs stand apart in the source and are kept apart here.

Legend:
vitamin D receptor (VDR) = experiment: Vitamin D-inducible growth hormone production in transfected COS-1 cells; type: cell-based, Green monkey; details: for Total GH Production: averages of duplicate determinations
Procedure: The biological activity in vitro of chemically synthesized 1α,24(S)-(OH)2D2 and 1α,24(R)-(OH)2D2 was measured using a vitamin D-dependent transcriptional activation model system in which a vitamin D receptor (VDR)-expressing plasmid pSG5-hVDR1/3 and a plasmid p(CT4)^4TKGH containing a Growth Hormone (GH)-gene, under the control of a vitamin D-responsive element (VDRE) were co-transfected into Green monkey kidney, COS-1 cells. DNA's for these two vectors were supplied by Dr. Mark Haussler, Department of Biochemistry, University of Arizona, Tucson, Ariz.
Transfected cells were incubated with vitamin D metabolites and growth hormone production was measured.

[1] = Dermatological testing, topical treatment of dermatitis; type: in vivo, human; details: ointment 10 μg per gram, twice daily
Procedure: Compositions containing 1α,24(S)-dihydroxyvitamin D2 are evaluated for therapeutic efficacy of the composition in the topical treatment of dermatitis (contact and ectopic). The composition evaluated is an ointment containing 10 μg of 1α,24-dihydroxyvitamin D2 per gram of ointment in a petrolatum-almond oil base. […] The patients are treated in an out-patient clinic. They are instructed to use the preparation two times a day.
The ointment is as far as possible applied to a single lesion, or to an area of the disease. The ointment and its container are weighed before the treatment starts and returned with any unused contents for reweighing at the end of the treatment.
The area of the lesion treated is estimated and recorded, and the lesion is photographed as required, together with suitable “control” lesions. The latter are preferably lesions of similar size and stage of development, either in the vicinity of the treated lesion or symmetrically contralateral. Relevant details of the photographic procedure are recorded so as to be reproduced when the lesions are next photographed (distance, aperture, angle, background, etc.). The ointment is applied twice daily and preferably left uncovered. The “control” lesions are left untreated, but if this is not possible, the treatment used on them is noted. […]

[2] = Dose ranging study in postmenopausal osteoporotic women; type: in vivo, human; details: oral 0.5 to 8.0 μg/day, five weeks
Procedure: Twenty postmenopausal osteoporotic women are enrolled in an open label study.
In admission to the study, all patients receive instruction on selecting a daily diet containing 400 to 600 mg of calcium. Compliance to this diet is verified at weekly intervals by 24-hour food records and by interviews with each patient.
All patients complete a one-week baseline period, a five-week treatment period, and a one-week post-treatment observation period. During the treatment period, patients orally self-administer 1α,24(S)-dihydroxyvitamin D2 at an initial dose of 0.5 μg/day for the first week, and at successively higher doses of 1.0, 2.0, 4.0, and 8.0 μg/day in each of the following four weeks. All doses are administered before breakfast.
Blood and urine chemistries are monitored on a weekly basis throughout the study. Key blood chemistries include fasting serum levels of calcium, phosphorus, osteocalcin, creatinine, and blood urea nitrogen. Key urine chemistries include 24-hour excretion of calcium, phosphorus, and creatinine.

HL-60 promyelocytes = experiment: HL-60 cell differentiation assay; type: cell-based; details: dose-response study
Procedure: A dose-response study is conducted with 1α,24(S)-(OH)2D2 in the HL-60 cell differentiation assay as described by DeLuca and Ostrom (DeLuca, H. F. and Ostrem, V. K., Prog. Clin. Biol. Res., vol. 259, pp. 41-55 (1988)). In this study, 1α,25-(OH)2D3 is used as a positive control and appropriate solvents are used as negative controls. The following variables are evaluated: nonspecific acid esterase activity, nitroblue tetrazolium (NBT) reduction, and thymidine incorporation.

[3] = Blood metabolite levels in osteoporotic women administered 1α-OH-D2; type: in vivo, human
Procedure: An increase in the production of 1α,24(S)-(OH)2D2 relative to 1α,25-(OH)2D2 has also been observed by the present inventors in human females who received 1α-OH-D2 as part of an investigation of that drug for the treatment of osteoporosis. Following either a single dose of 2 μg of 1α-OH-D2 or daily doses of 8 μg/day for one week, blood was collected and analyzed for the metabolites 1α,24(S)-(OH)2D2 and 1α,25-(OH)2D2. Lipid was extracted from the blood, and the metabolites were purified by HPLC using standard methods and quantified with the radioreceptor assay produced by Incstar (Stillwater, Minn.). One day after a single 2 μg dose, the level of 1α,24(S)-(OH)2D2 was undetectable with the 1α,25-(OH)2D2 level being approximately 11 pg/ml. In contrast, one day following the last dose of 8 μg, the level of 1α,24(S)-(OH)2D2 averaged 9 pg/mL with the 1α,25-(OH)2D2 level averaging 30 pg/mL.

[4] = target: T1, vitamin D serum binding protein (DBP) (Rattus norvegicus, UniProt P04276); experiment: Affinity for vitamin D serum binding protein using vitamin D deficient rat serum
T1 construct: assessed using vitamin D deficient rat serum; from tissue; host or cells: vitamin D deficient rat serum
T1 sequence (P04276 17-476): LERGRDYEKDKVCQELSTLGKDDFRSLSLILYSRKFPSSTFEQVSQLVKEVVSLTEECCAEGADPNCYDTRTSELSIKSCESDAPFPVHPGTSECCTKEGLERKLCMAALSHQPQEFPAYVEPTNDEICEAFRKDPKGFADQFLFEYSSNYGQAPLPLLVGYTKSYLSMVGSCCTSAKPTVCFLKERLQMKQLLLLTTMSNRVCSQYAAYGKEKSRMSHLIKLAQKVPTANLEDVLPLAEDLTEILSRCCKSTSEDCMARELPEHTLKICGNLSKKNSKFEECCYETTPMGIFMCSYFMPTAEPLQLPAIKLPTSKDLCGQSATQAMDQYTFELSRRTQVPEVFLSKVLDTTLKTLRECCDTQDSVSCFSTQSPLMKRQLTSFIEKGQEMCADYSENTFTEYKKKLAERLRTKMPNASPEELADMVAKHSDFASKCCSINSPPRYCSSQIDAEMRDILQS
Source text: In addition, the weak binding by the DBP was indicative of more rapid clearance, allowing for low toxicity.

- blood level of metabolite ([3]; one day after a single 2 μg dose of 1α-OH-D2): undetectable
- blood level of metabolite (average) ([3]; one day following the last dose of 8 μg/day 1α-OH-D2 for one week): 9 pg/mL
- binding affinity for the vitamin D serum binding protein (in words) [4]: relatively poor binding affinity
- binding affinity for the vitamin D serum binding protein (in words) ([4]; listed as 1α,24(S)-dihydroxyvitamin D2): more weakly than does 1,25-(OH)2D3
- binding of DBP relative to 25-OH-D3 ([4]; vitamin D deficient rat serum): at least 1000 times weaker
Structure (SMILES): C=C1/C(=C\C=C2/CCC[C@]3(C)[C@@H]([C@H](C)/C=C/[C@@](C)(O)C(C)C)CC[C@@H]23)C[C@@H](O)C[C@@H]1O [1α,24(S)-(OH)2D2, 1α,24(S)-dihydroxyvitamin D2]
- Net vitamin D-inducible GH-production (vitamin D receptor (VDR); inducer 5 × 10^−9 M): 1306 ng/mL
- Total GH Production (vitamin D receptor (VDR); inducer 5 × 10^−9 M): 1350 ng/mL
- Net vitamin D-inducible GH-production (vitamin D receptor (VDR); inducer 5 × 10^−10 M): 381 ng/mL
- Total GH Production (vitamin D receptor (VDR); inducer 5 × 10^−10 M): 425 ng/mL
- incidence of hypercalcemia [1]: insignificant incidence of hypercalcemia
- lesion severity scores (erythema, scaling, thickness; 0 to 3) ([1]; four to six weeks): lower scores than the control lesions
- 24-hour urinary calcium levels [2]: modest increases in 24-hour urinary calcium levels
- kidney function (creatinine clearance, blood urea nitrogen) [2]: does not adversely affect kidney function
- routinely monitored serum parameters [2]: no effect on any routinely monitored serum parameters
- serum osteocalcin levels [2]: increases in serum osteocalcin levels
- urinary excretion of hydroxyproline [2]: nor does it increase urinary excretion of hydroxyproline
- differentiation of HL-60 promyelocytes to monocytes (HL-60 promyelocytes): potent activity in promoting differentiation
